Laboratory results published in ChEMBL document CHEMBL3244076, “N,N'-(Phenylene)dioxamic acids and their esters as antiallergy agents” (1978).

Key:
Assay type in all cases: functional
Rattus norvegicus [1] = assay: Antiallergic activity in anti-egg albumin homocytotropic antibody-sensitized Sprague-Dawley rat assessed as inhibition of passive cutaneous anaphylaxis reaction at 50 mg/kg, po administered 120 mins prior to antigen egg albumin challenge
Rattus norvegicus [2] = assay: Antiallergic activity in anti-egg albumin homocytotropic antibody-sensitized Sprague-Dawley rat assessed as inhibition of passive cutaneous anaphylaxis reaction at 50 mg/kg, po administered 5 mins prior to antigen egg albumin challenge
Rattus norvegicus [3] = assay: Antiallergic activity in anti-egg albumin homocytotropic antibody-sensitized Sprague-Dawley rat assessed as inhibition of passive cutaneous anaphylaxis reaction at 50 mg/kg, po administered 60 mins prior to antigen egg albumin challenge
Rattus norvegicus [4] = assay: Antiallergic activity in po dosed anti-egg albumin homocytotropic antibody-sensitized Sprague-Dawley rat assessed as lowest concentration required for >20% inhibition of passive cutaneous anaphylaxis reaction administered prior to antigen egg albumin challenge
Rattus norvegicus [5] = assay: Antiallergic activity in anti-egg albumin homocytotropic antibody-sensitized Sprague-Dawley rat assessed as inhibition of passive cutaneous anaphylaxis reaction at 50 mg/kg, po administered 20 mins prior to antigen egg albumin challenge
Rattus norvegicus [6] = assay: Antiallergic activity in anti-egg albumin homocytotropic antibody-sensitized Sprague-Dawley rat assessed as time of peak action for inhibition of passive cutaneous anaphylaxis reaction at 50 mg/kg, po administered prior to antigen egg albumin challenge
Rattus norvegicus [7] = assay: Antiallergic activity in anti-egg albumin homocytotropic antibody-sensitized Sprague-Dawley rat assessed as inhibition of passive cutaneous anaphylaxis reaction at 10 mg/kg, po administered 20 mins prior to antigen egg albumin challenge
Rattus norvegicus [8] = assay: Antiallergic activity in anti-egg albumin homocytotropic antibody-sensitized Sprague-Dawley rat assessed as inhibition of passive cutaneous anaphylaxis reaction at 10 mg/kg, po administered 5 mins prior to antigen egg albumin challenge
Rattus norvegicus [9] = assay: Antiallergic activity in anti-egg albumin homocytotropic antibody-sensitized Sprague-Dawley rat assessed as inhibition of passive cutaneous anaphylaxis reaction at 10 mg/kg, po administered 60 mins prior to antigen egg albumin challenge
Rattus norvegicus [10] = assay: Antiallergic activity in iv dosed anti-egg albumin homocytotropic antibody-sensitized Sprague-Dawley rat assessed as inhibition of passive cutaneous anaphylaxis reaction administered at the time of antigen egg albumin challenge
Rattus norvegicus [11] = assay: Antiallergic activity in anti-egg albumin homocytotropic antibody-sensitized Sprague-Dawley rat assessed as inhibition of passive cutaneous anaphylaxis reaction at 0.01 mg/kg, iv administered at the time of antigen egg albumin challenge
Rattus norvegicus [12] = assay: Ratio of disodium cromoglycate ED50 to compound ED50 for antiallergic activity in iv dosed anti-egg albumin homocytotropic antibody-sensitized Sprague-Dawley rat by passive cutaneous anaphylaxis reaction analysis
Rattus norvegicus [13] = assay: Antiallergic activity in anti-egg albumin homocytotropic antibody-sensitized Sprague-Dawley rat assessed as inhibition of passive cutaneous anaphylaxis reaction at 0.001 mg/kg, iv administered at the time of antigen egg albumin challenge

Row | Structure (SMILES) | inhibition in vivo at 50 mg/kg (Rattus norvegicus [2]) [%] | inhibition in vivo at 50 mg/kg (Rattus norvegicus [3]) [%] | LED (Rattus norvegicus [4]) [mg/kg] | inhibition in vivo at 50 mg/kg (Rattus norvegicus [5]) [%] | Time (Rattus norvegicus [6]) [min] | also measured
1 | CCOC(=O)C(=O)Nc1cccc(NC(=O)C(=O)OCC)c1 | 3 | 14 | 1 | 94 | 20 | inhibition in vivo at 50 mg/kg (Rattus norvegicus [1]): 29%
2 | CCOC(=O)C(=O)Nc1cc(C#N)cc(NC(=O)C(=O)OCC)c1 | – | – | – | – | – | inhibition in vivo at 10 mg/kg (Rattus norvegicus [7]): 25%; inhibition in vivo at 10 mg/kg (Rattus norvegicus [8]): 95%; inhibition in vivo at 10 mg/kg (Rattus norvegicus [9]): 0%
3 | O=C([O-])c1cc(=O)c2c(OCC(O)COc3cccc4oc(C(=O)[O-])cc(=O)c34)cccc2o1.[Na+].[Na+] [CROMOLYN SODIUM] | – | – | – | – | – | ED50 (Rattus norvegicus [10]): 2.5 mg/kg
4 | CCOC(=O)C(=O)Nc1cc(C#N)cc(NC(=O)C(=O)OCC)c1Cl [LODOXAMIDE ETHYL] | 100 | 0 | 0.1 | 31 | 5 | –
5 | N#Cc1cc(NC(=O)C(=O)O)c(Cl)c(NC(=O)C(=O)O)c1 [LODOXAMIDE] | – | – | – | – | – | inhibition in vivo at 0.01 mg/kg (Rattus norvegicus [11]): 94%; Ratio ED50 (Rattus norvegicus [12]): 2500; inhibition in vivo at 0.001 mg/kg (Rattus norvegicus [13]): 50%
